Article PMC8397403, “Physiologically Based Pharmacokinetic Modeling of Transporter-Mediated Hepatic Disposition of Imaging Biomarker Gadoxetate in Rats” (Molecular Pharmaceutics, 2021)
Like-named read-outs stand apart in the source and are kept apart here.

Key:
[1] = Pitavastatin uptake in plated rat hepatocytes with and without rifamycin SV (positive control for transporter activity); format: in vitro ADME; details: male, Sprague-Dawley, rat, plated primary rat hepatocytes; pitavastatin 0.2 μM, absence of rifamycin SV, 0.5-2 min; mean (CV 24%); read-out: Unbound intrinsic uptake clearance (CLint,u)
Protocol: (§1) Male adult Sprague-Dawley rats (Charles River, Margate, Kent, UK) were housed in groups of two in individually ventilated cages with free access to food (Chow rat and mouse diet) and fresh drinking water. The designated rat housing facility maintained a controlled temperature (20 ± 3 °C), humidity (40–70%), and 12 h light/dark cycle conditions. All animal protocols were approved by the University of Manchester review committee and adhered to the UK Home Office Animals (Scientific Procedures) Act (1986). Rats (250–300 g) were sacrificed using CO2 overdose followed by cervical dislocation in the morning of the study day. The kinetics experiment, as described below, was performed using n = 4 animals. […] Following sample preparation including addition of internal standard (Table S1), gadoxetate and pitavastatin in cell samples, and gadoxetate in media samples, were quantified by liquid chromatography–tandem mass spectrometry (LC–MS/MS). LC–MS/MS quantification was performed using selective reaction monitoring (SRM) against calibration standards; only standards within 30% of nominal concentration were included. The protein content of plated rat hepatocytes was measured using the Pierce BCA Protein Assay Kit (Thermo Fisher Scientific, Paisley, UK). […]

[2] = tested on: active uptake transport of gadoxetate into the liver; assay: Simultaneous PBPK fitting of gadoxetate DCE-MRI data in control and rifampicin phases; format: in vivo, rat; details: Rattus norvegicus
Protocol: DCE–MRI data generated using the 3D Fast Low Angle Shot RF-spoiled gradient echo sequence (FLASH) protocol in male Wistar-Han rats were used for assessing the PBPK IVIVE performances and for obtaining some of the PBPK parameters within the bottom-up and top-down approaches, respectively. The DCE–MRI data were acquired in a multicenter study at two magnetic field strengths, 4.7 and 7 T. Gadoxetate was administered at a dose of 25 μmol/kg, either alone or 1 h after IV administration of 10 mg/kg rifampicin. When gadoxetate was administered alone (control arm), 43 profiles of blood, spleen, and liver measured at a field strength of 4.7 T and 52 profiles of blood, spleen, and liver measured at 7 T were available. In the case of gadoxetate administered with rifampicin, 7 blood, spleen, and liver profiles at a field strength equal to 4.7 T and 6 at 7 T were available. All gadoxetate DCE–MRI data and study protocols are detailed in a companion paper (Hines et al. in submission).
The DCE–MRI data used in this study were reported as ΔR1. Therefore, the relationship between the compartmental concentrations represented by the PBPK model state variables and the ΔR1 measurements for the blood, liver, and spleen needed to be described. The linear relationship in eq 4 is not valid for ΔR1 of the liver, ΔR1,liv, because intracellular and extracellular tissue compartments have different relaxivities. To derive ΔR1,liv, a volume fraction-weighted mean of the contributions of the gadoxetate concentration in all the compartments used to model the liver was performed.[40] In the spleen, the entire distribution space was supposed to have the same relaxivity as blood and, therefore, eq 4 can be applied directly to derive spleen concentrations from ΔR1,spl. Concerning the blood, the blood value for r1 in Table 1 allows ΔR1,b to be directly related to the blood concentration. The relations between ΔR1,liv, ΔR1,spl, and ΔR1,b and the concentrations of the PBPK compartments are shown in eq 7. [drawing 7] 7 cspl,extr is the extracellular concentration in the spleen and Vspl,extr is the extracellular volume of the spleen and Vliv and Vspl are the whole volumes of liver and spleen. r1,liv,extr and r1,spl,extr were assumed to be equal to r1,b, as described in Hines et al.
In fact, each of the data are acquired during a time interval Δt, which was 57 s in the current dataset. To account for this characteristic when performing the parameter estimation, the residuals were calculated as the difference of the observed ΔR1 corresponding to a given time interval minus the mean of the simulated PBPK ΔR1 within the same interval, as explained in the Supporting Information, Section 4.
The extent of interaction with rifampicin was estimated by performing a simultaneous fitting of gadoxetate ΔR1 in the control and inhibitory phase. In this analysis, PS was considered the same for both phases, whereas the other parameters were separately estimated in the absence (CLactive and CLbiliary) and in the presence of rifampicin (CLactive,inh and CLbiliary,inh). CLbiliary,inh was considered to account for possible inhibition of Mrp2 in rat by rifampicin, as previously reported.[45] To understand the impact of the inclusion of the liver-imaging data on the parameter optimization, the simultaneous estimation was also performed considering only the blood data.
All the PBPK analyses were performed in MATLAB R2020a,[50] the ordinary differential equations were solved with the function “ode15s”, while the parameter optimization was performed with the function “lsqnonlin”. The uncertainty of the parameters estimate was evaluated with the case-bootstrap,[51] using 1000 samples.

plated rat hepatocytes = assay: Pitavastatin uptake in plated rat hepatocytes with and without rifamycin SV (positive control for transporter activity); format: in vitro ADME; details: 100 μM rifamycin SV; pitavastatin 0.2 μM; mean (CV 23%)
Protocol: as §1

O=C(O)C[C@H](O)C[C@H](O)/C=C/c1c(C2CC2)nc2ccccc2c1-c1ccc(F)cc1 [pitavastatin]
hepatocyte CLint at 0.2 μM [1]: 95.7 µL/min/1e6 cells

CO[C@H]1/C=C/O[C@@]2(C)Oc3c(C)c(O)c4c(O)c(c(/C=N/N5CCN(C)CC5)c(O)c4c3C2=O)NC(=O)/C(C)=C\C=C\[C@H](C)[C@H](O)[C@@H](C)[C@@H](O)[C@@H](C)[C@H](OC(C)=O)[C@@H]1C [rifampicin]
inhibition at 10 mg/kg ([2]; iv, rifampicin i.v. 10 mg/kg, fit with blood, spleen and liver data, read-out: inhibition of gadoxetate CLactive (active uptake into the liver)): 96% | inhibition at 10 mg/kg ([2]; rifampicin 10 mg/kg, only blood ΔR1 profiles (without liver data), read-out: inhibition of gadoxetate CLactive, blood ΔR1 only): 84%

CO[C@H]1/C=C/O[C@@]2(C)Oc3c(C)c(O)c4c(O)c(cc(O)c4c3C2=O)NC(=O)/C(C)=C\C=C\[C@H](C)[C@H](O)[C@@H](C)[C@@H](O)[C@@H](C)[C@H](OC(C)=O)[C@@H]1C [rifamycin SV]
reduction of the uptake of pitavastatin (plated rat hepatocytes): 54%
